Data from US12565514B2, “Nucleic acid containing perfluoroalkyl group, and method for its production” (AGC Inc., priority 2019, dated 2026).
{C5-PFC} = N[C5-PFC] unit carrying a C5 perfluoroalkyl group, added by phosphoramidite

Tested on: HeLa cells
Experiment: Cellular uptake of fluorescein-modified nucleic acids by flow cytometry
Assay type: cell-based
Conditions: single-stranded nucleic acid with fluorescein at 3′-end, 2.5 μM in DMEM, incubated 4 or 24 hours
Method: HeLa cells were cultured in Dulbecco's modified Eagle's medium (DMEM, Thermo Fischer Scientific) supplemented with 10% FBS and 0.5% penicillin/streptomycin in a humidified atmosphere (5 volume % CO2) at 37° C. Cells for image analysis were cultured in a 35 mm glass bottom dish (manufactured by IWAKI).
HeLa cells were seeded in 12-well plates at a density of 10^5 cells/well and cultured. On the day after seeding, the medium in each well was replaced with DMEM medium (1 mL) containing DNA (2.5 μM) modified with fluorescein-bound N[PFC] or N[PFPE], and incubated for 4 or 24 hours. Then, the cell layer in the wells was washed twice with PBS, and the cells were detached by treatment with 0.05% (w/v) trypsin (200 μL) at 37° C. for 5 min. The recovered cells were suspended in DMEM (600 μL). The cell suspension was separated by centrifugation process (400G, 3 min), and PBS/1% BSA (500 μL) was added. The percentage of fluorescent cells and the average fluorescence intensity of this cell suspension were analyzed by a flow cytometer (“guava easyCyte8”, manufactured by Luminex).
In the case of double-stranded DNA, a sample was denatured at 100° C. and annealed by slowly bringing it down to room temperature.
The nucleic acid having fluorescein bonded to the 3′-end of the N[C8-PFC]-modified DNA synthesized in Example 2 was, as a single strand or as a double strand, added to the culture medium of HeLa cells and incubated, whereby the efficiency of cellular uptake was examined by flow cytometry.
The nucleic acid having fluorescein bonded to the 3′-end of the N[C5-PFPE]-modified DNA synthesized in Example 1 was, as a single strand, added to the culture medium of HeLa cells and incubated, whereby the efficiency of cellular uptake was examined by flow cytometry.

| Substance | cellular uptake (flow cytometry) |
| --- | --- |
| 5′-(N[C5-PFC])TTTTCAGTTGACCATATA-3′ (DNA, 5' {C5-PFC}, backbone not given here) [F1] | no difference from the fluorescein-modified nucleic acid of cont-DNA |
| 5′-(N[C5-PFC])5TTTTTCAGTTGACCATATA-3′ (DNA, 5' {C5-PFC}-{C5-PFC}-{C5-PFC}-{C5-PFC}-{C5-PFC}, backbone not given here) [F5] | higher cellular uptake than the fluorescein-modified nucleic acid of cont-DNA |
| 5′-(N[C5-PFC])2TTTTTCAGTTGACCATATA-3′ [F2] | higher cellular uptake than the fluorescein-modified nucleic acid of cont-DNA |
